Data published in paper PMC8607231, “Generation of KS-133 as a Novel Bicyclic Peptide with a Potent and Selective VIPR2 Antagonist Activity that Counteracts Cognitive Decline in a Mouse Model of Psychiatric Disorders” (Frontiers in Pharmacology, 2021).
Where a SMILES comes first, the peptide text is derived from it. Bridges are numbered along the chain shown (N, C = ends).

Test system: VIPR2 activation-induced phosphorylation of CREB
Experiment: Western blot of pCREB in prefrontal cortex of neonatal mice after s.c. injection
Format: in vivo, mouse
Details: ICR mice at P12, KS-133 1 nmol/g s.c. simultaneously with Ro 25-1553 0.4 nmol/g, 1 h after injection
Description: For western blot analysis, ICR neonatal mice at P12 (7–10 g body weight) were subcutaneously (s.c.) injected with KS-133 (1 nmol/g) and Ro 25-1553 (0.4 nmol/g, Peptide Institute, Inc. Osaka, Japan), a selective VIPR2 agonist ([Gourlet et al., 1997]; [Harmar et al., 2012]), and adult C57BL/6J mice at 8 weeks of age (20–30 g body weight) were intranasally (i.n.) injected with KS-133 (20 nmol/mouse) and BAY 55-9837 (20 µg/mouse, Tocris Bioscience, Bristol, United Kingdom), another selective VIPR2 agonist ([Tsutsumi et al., 2002]; [Tian et al., 2019]). The dosages of these drugs were determined in a preliminary experiment using the change in phosphorylation of cAMP-response element-binding protein (CREB) as an index. Ro 25-1553 was dissolved in phosphate-buffered saline (PBS) and BAY 55-9837 was dissolved in distilled water. KS-133 was dissolved in saline with 1% dimethyl sulfoxide (DMSO; #13445-74, Nacalai Tesque, Inc., Kyoto, Japan) for s.c. injection or saline with 5% DMSO and 5 mg/ml poly-L-arginine (#P7762, Sigma-Aldrich, St. Louis, MO, United States) for i.n. injection. […]
FIGURE 4 Effects of subcutaneous (A) and intranasal (B) administration of KS-133 on VIPR2 activation-induced phosphorylation of CREB in the prefrontal cortex of mice. Phospho-CREB (pCREB), total CREB, and β-actin levels were analyzed by western blotting. […]

CC[C@H](C)[C@H](NC(=O)[C@H](CC(C)C)NC(=O)[C@@H]1CC(=O)NCCCC[C@@H]2NC(=O)[C@@H]3CCCN3C(=O)[C@H](CC(C)C)NC(=O)[C@H](Cc3ccc(O)cc3)NC(=O)[C@@H]3CCCN3C(=O)[C@@H]3CCCN3C(=O)[C@@H](NC(C)=O)CSSC[C@H](NC(=O)[C@H](CC(C)C)NC(=O)[C@H](Cc3ccc(O)cc3)NC2=O)C(=O)N1)C(N)=O [KS-133, Ac-c[Cys-Pro-Pro-Tyr-Leu-Pro-c(Lys-Tyr-Leu-Cys]-Asp)-Leu-Ile-NH2] (Ac-CPPYLPKYLCDLI-NH2; disulfide 1-10; lactam 7-11)
Effect on Ro 25-1553-induced increase in CREB phosphorylation: suppressed the Ro 25-1553-induced increase in CREB phosphorylation
